According to patent US7030081B2 (S.I.S.S.A.- Scuola Internazionale Superiore di Studi …, priority 2000, dated 2006):
“And” between values parts separate entries of the source, which are not always exact repeats. Equal values may be shown once. “Also recorded” adds a separate entry of the source. No end group written: not given here.

Key:
[1] = biological target: T1, muscle-type nicotinic receptors (Mus musculus, UniProt P02716+P04756+P09690); assay: Patch-clamp recording of nicotinic currents in cultured muscle cells (myotubes, I28); assay type: cell-based
T1 construct: nicotinic currents recorded from cultured muscle cells (myotubes, I28); endogenous in cells; host or cells: I28 myotubes
Method: A set of experiments was carried out using […] which represent myotubes and therefore contain muscle-type nicotinic receptors. For this purpose the cells were prepared according to method by Irintchev et al. (1997).
(§1) Dishes containing cultured cells (used from 0 to 3 days after their preparation) were placed on an inverted Nikon DIAPHOT™ microscope and continuously superfused (5–10 ml/min) with control saline containing (mM): NaCl 135, KCl 5, MgCl2 1, CaCl2 2, glucose 15, HEPES 10 (pH 7.4 with addition of […]; 285 mOsm osmolarity). The patch pipettes, obtained from glass capillary tubes (1.5 mm o.d.) had 5–6 MΩ resistance when filled with intracellular solution containing: (mM) CsCl 120; HEPES 20; MgCl2 1; Mg2ATP3 3, BAPTA 10 (240 mOsm). The pH of the intracellular solution was adjusted to 7.2 with CsOH. Unless otherwise specified, all recordings were carried out at −70 mV membrane potential. After obtaining whole-cell configuration (Hamill et al. 1981), each cell was stabilized for […] period, after which membrane ionic currents, mediated by nAChR activation, were recorded, filtered at 1 kHz, and stored in a PC for subsequent analysis with the pCLAMP 6.04 program (Axon Instruments Inc., Foster City, Calif.).
To this end we studied whether this peptide could affect nicotinic currents recorded from cultured muscle cells (myotubes, I28). These cells were kept at −60 mV potential by the patch electrode.

[2] = tested on: nAChRs of rat chromaffin cells; assay: Patch-clamp recording of nicotine-induced currents in cultured rat chromaffin cells; assay type: cell-based; settings: for depression (reduction) of the response to nicotine: 5 μM physostigmine, 0.1 mM nicotine; for effect on nicotine dose response curve: 1 μM peptide or 0.5 μM physostigmine
Method: Cultures of rat chromaffin cells were prepared according to the Brandt method (Brandt et al., 1976, Giniatullin et al., 1999, Khirough et al., 1997, 1998). 25–35 day old rats were anaesthetized by increasing CO2 levels and then their adrenal glands were removed. The medullary part was separated from the cortical portion of the gland in buffer solution (pH 7.2) containing (mM): NaCl 137, KCl 3, Na2HPO4 0.7, HEPES 25, glucose 10 and 350 U ml^−1 of penicillin and streptomycin.
Cells were successively dissociated from fragments of medullary tissue at 37° C. over about 60 min, by passing them through a Pasteur pipette at 15 min intervals, and by enzymatic treatment with collagenase A and DNAse I (0.5 U ml^−1 and 10 μgml^−1). The cell containing suspension was then centrifuged at 700 rpm for 5 min and washed twice in HEPES buffered medium. The cells, after re-suspension in DMEM culture medium (Dulbecco's modified Eagle's medium) with addition of 10% FCS (calf fetal serum), were plated on poly-lysine (5 mg/ml)-pretreated Petri dishes and cultured at 37° C. for 1–2 days in 5% CO2 containing atmosphere.
as §1
nAChR agonists were administered to single cells by a pressure system from a micropipette containing a relatively concentrated solution and placed at […] distance from the recorded cell. […] This method allows very rapid administration of a chemical substance with a few ms latency to observe a cell response. For application of antagonists, test compounds and control solution we used a rapid superfusion system (Bio-logic, France) consisting of an array of glass capillary tubes (0.8 mm o.d.) which, through rapid rotation, generate solution flow onto the treated cell. In this case the exchange time between two solutions is about 50 ms.

nAChRs = settings: Giniatullin et al.; cited from earlier work
[3] = 1 μM peptide, nicotine 0.1 mM, 20 ms pulse

T1 sequence (P04756 21-457): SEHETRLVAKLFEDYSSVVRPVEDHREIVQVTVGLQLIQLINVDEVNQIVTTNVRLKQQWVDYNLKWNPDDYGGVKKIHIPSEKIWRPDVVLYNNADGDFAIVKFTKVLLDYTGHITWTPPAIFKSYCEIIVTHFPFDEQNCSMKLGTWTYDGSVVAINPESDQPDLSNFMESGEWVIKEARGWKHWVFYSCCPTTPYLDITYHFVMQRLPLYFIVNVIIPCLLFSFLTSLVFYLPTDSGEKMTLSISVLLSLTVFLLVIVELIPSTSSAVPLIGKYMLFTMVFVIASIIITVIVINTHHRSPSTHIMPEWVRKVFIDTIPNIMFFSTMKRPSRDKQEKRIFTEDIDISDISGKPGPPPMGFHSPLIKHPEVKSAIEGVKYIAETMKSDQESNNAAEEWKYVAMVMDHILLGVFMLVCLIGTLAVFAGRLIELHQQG
T1 sequence (P09690 24-501): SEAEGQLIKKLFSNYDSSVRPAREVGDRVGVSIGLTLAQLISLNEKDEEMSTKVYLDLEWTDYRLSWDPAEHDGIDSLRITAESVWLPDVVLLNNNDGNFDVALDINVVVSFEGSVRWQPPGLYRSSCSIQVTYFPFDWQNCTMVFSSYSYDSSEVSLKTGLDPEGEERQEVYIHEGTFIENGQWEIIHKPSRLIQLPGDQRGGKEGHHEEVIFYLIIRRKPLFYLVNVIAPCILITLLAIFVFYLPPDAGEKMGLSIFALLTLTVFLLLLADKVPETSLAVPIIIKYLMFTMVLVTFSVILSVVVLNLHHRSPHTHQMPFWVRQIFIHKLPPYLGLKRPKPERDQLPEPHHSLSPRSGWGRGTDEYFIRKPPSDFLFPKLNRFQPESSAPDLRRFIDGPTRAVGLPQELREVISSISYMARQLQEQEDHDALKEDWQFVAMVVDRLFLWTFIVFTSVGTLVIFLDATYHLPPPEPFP
T1 sequence (P02716 25-520): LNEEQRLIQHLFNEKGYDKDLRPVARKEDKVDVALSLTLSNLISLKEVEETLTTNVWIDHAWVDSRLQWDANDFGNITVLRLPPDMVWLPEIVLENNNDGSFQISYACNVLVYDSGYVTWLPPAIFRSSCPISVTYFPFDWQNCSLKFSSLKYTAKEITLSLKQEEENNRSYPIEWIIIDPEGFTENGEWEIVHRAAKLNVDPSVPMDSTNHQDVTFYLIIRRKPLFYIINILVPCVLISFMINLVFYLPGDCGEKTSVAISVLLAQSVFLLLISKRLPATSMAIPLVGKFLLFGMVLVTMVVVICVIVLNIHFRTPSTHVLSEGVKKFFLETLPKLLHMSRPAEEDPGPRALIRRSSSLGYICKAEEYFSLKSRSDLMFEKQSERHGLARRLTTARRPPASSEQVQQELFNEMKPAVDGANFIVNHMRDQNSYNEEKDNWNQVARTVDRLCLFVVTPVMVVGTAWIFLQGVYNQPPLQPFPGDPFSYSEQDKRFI
T1 sequence (P04760 23-519 partner): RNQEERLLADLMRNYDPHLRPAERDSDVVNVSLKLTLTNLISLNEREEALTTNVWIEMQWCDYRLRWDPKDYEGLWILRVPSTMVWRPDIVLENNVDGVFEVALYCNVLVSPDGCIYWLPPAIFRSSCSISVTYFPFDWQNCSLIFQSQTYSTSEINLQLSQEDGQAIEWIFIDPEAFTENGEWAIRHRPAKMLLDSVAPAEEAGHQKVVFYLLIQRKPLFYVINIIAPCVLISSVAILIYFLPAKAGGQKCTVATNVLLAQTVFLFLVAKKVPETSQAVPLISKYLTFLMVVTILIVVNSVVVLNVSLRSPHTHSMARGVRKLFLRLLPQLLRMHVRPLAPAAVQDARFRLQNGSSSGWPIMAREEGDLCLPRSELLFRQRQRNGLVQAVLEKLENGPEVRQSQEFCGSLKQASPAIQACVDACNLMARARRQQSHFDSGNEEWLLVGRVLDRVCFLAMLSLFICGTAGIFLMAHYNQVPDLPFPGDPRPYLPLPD

Compound: CN1CCCC1c1cccnc1 (stereo not drawn) [Nicotine, nicotine, reference compound]
- EC50 [1]: 100 µM

Compound: Ser-Cys-Asn-Thr (SCNT; listed as Homo sapiens) [CGRP 1-4]
- enhancement of nicotine induced currents [2, 3]: 8±1%
- action of fragment on nicotinic currents (in words) ([2]; FIG. 5B): modest enhancing effect

Compound: Ser-Cys-Asn-Thr-Ala (SCNTA; listed as Homo sapiens) [CGRP 1-5]
- enhancement of nicotine induced currents ([2]; 10 μM peptide): 26±4%

Compound: SCNTATC (cysteine pairing not given here) [CGRP 1-7, reference compound]
- inhibition of nicotine currents ([2]; 1 μM peptide): 42%
- action on nAChRs reported earlier (in words) (nAChRs): rapidly developing, competitive antagonism readily reversible on wash

Compound: CNC(=O)Oc1ccc2c(c1)[C@]1(C)CCN(C)[C@@H]1N2C [physostigmine, reference compound]
- depression (reduction) of the response to nicotine ([2]; 20 ms): 48±5%
- depression (reduction) of the response to nicotine ([2]; 20 ms, listed as phystigmine): 77±1%

Compound: SCNTAT [CGRP 1-6]
- potentiation of nicotine current at threshold ([2]; 0.1 μM peptide, nicotine 20 ms, 0.1 mM): 105±7%
- nicotine currents (fraction of control) on concurrent application of CGRP 1-6 and CGRP 1-7 ([2]; 1 μM concentration of both): 99±4%
- application time after which enhancement is observed ([2]; 1 μM peptide): ≤ 5 s
- wash time for reversal of enhancement ([2]; 1 μM peptide): about 1 min
- effect on nicotine dose response curve [2]: shifted to the left in a parallel fashion without modification of the maximum response
- effect on maximal currents (saturating nicotine pulse) ([2]; 1 μM peptide, 200 ms nicotine pulse): absent; also recorded: not modified
- enhancement of nicotine induced currents [2, 3]: 31% and 31±7% and 21±4%
- maximum value of potentiation of nicotine current ([2]; 50 μM peptide, nicotine 20 ms, 0.1 mM): 156±6%
- enhancement with combined application of CGRP 1-6 and physostigmine ([2]; CGRP 1-6 1 μM + physostigmine 0.5 μM): 37±6%
- washout time for current to return to the initial value ([2]; FIG. 3C): 45 to 60 s
- enhancement with cytisine as agonist ([2]; cytisine 20 ms, 0.1 mM): enhancing effect was exerted also when nAChRs were activated by cytisine
- CGRP 1-6 enhancing action threshold value ([2]; nicotine 0.1 mM, 20 ms, 0.05–100 μM tested): 0.1 µM
- nicotine currents as % of the control with physostigmine plus CGRP 1-6 ([2]; physostigmine 5 μM + CGRP 1-6 1 μM): 79±1%
- direct action in the absence of agonist ([2]; resting membrane conductance, baseline current): not associated with any direct action
- dependence of enhancing action on membrane potential ([2]; −40, −70 and −100 mV): independent from the membrane potential
- effect on muscle-type nicotinic receptor responses (in words) [1]: did not modify the muscle-type nicotinic receptor responses
- amplitude of nicotine responses as % of the controls ([1]; 1 μM CGRP 1-6 pre-applied for 2 minutes, nicotine 100 μM, −60 mV): 101±2%

Compound: SCNTATA [CGRP 1-7A, Cys7 replaced with Ala]
- wash time for reversal of enhancement ([2]; 1 μM peptide): about 1 min
- effect on nicotine dose response curve [2]: significantly shifted to left without increase in the maximum response
- enhancement of nicotine induced currents [2, 3]: 17±4%
- enhancement of nicotine induced currents ([2]; 1 μM peptide, nicotine 0.1 mM, 20 ms pulse, listed as 1-7A): 18%
- enhancement of nicotine induced currents ([2]; 1 μM peptide, nicotine 0.1 mM, 20 ms pulse, listed as CGRP 1-7 A): about 18%
